Test [1] deals with cyclin D1. Briefly: Cyclin D1 percentage degradation in Calu-1 cells (immunoblotting). The test is classed as cell-based. The following applies: 200 nM, 16 hours. The method, boiled down: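 Cells were rinsed once in cold PBS and lysed in cold RIPA buffer containing protease and phosphatase inhibitors, with gentle agitation at 4° C. for 30 min. Lysates were spun at 13,000 rpm for 10 min at 4° C., protein was measured by BCA, and samples were boiled in Laemmli buffer at 99° C. for 5 min before SDS-PAGE immunoblotting.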
For orientation: Immunoblotting shows a protein as a band on a membrane.

Test [2] deals with T1, CDK4 (Homo sapiens, UniProt P11802).
T1 construct: endogenous in cells; host or cells: Calu-1
T1 sequence (P11802 2-303 limits assumed): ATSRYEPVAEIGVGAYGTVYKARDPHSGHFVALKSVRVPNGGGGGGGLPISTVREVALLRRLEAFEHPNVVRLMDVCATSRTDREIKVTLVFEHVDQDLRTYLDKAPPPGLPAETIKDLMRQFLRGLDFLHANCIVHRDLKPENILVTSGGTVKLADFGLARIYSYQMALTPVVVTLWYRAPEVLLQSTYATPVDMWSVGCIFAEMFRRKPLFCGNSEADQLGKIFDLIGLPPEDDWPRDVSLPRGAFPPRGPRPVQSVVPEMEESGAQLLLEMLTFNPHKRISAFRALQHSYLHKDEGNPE
T1 sequence (P24385 whole entry partner): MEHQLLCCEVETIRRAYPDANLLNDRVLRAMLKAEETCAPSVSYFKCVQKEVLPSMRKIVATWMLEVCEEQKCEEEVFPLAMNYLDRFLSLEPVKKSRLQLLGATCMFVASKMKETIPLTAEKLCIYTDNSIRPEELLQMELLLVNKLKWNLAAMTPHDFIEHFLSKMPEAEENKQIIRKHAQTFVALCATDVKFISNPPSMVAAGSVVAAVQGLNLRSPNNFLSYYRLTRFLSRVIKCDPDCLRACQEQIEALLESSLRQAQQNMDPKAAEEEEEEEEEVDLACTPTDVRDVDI
T1 sequence (Q16531 2-1140 limits assumed, further chain): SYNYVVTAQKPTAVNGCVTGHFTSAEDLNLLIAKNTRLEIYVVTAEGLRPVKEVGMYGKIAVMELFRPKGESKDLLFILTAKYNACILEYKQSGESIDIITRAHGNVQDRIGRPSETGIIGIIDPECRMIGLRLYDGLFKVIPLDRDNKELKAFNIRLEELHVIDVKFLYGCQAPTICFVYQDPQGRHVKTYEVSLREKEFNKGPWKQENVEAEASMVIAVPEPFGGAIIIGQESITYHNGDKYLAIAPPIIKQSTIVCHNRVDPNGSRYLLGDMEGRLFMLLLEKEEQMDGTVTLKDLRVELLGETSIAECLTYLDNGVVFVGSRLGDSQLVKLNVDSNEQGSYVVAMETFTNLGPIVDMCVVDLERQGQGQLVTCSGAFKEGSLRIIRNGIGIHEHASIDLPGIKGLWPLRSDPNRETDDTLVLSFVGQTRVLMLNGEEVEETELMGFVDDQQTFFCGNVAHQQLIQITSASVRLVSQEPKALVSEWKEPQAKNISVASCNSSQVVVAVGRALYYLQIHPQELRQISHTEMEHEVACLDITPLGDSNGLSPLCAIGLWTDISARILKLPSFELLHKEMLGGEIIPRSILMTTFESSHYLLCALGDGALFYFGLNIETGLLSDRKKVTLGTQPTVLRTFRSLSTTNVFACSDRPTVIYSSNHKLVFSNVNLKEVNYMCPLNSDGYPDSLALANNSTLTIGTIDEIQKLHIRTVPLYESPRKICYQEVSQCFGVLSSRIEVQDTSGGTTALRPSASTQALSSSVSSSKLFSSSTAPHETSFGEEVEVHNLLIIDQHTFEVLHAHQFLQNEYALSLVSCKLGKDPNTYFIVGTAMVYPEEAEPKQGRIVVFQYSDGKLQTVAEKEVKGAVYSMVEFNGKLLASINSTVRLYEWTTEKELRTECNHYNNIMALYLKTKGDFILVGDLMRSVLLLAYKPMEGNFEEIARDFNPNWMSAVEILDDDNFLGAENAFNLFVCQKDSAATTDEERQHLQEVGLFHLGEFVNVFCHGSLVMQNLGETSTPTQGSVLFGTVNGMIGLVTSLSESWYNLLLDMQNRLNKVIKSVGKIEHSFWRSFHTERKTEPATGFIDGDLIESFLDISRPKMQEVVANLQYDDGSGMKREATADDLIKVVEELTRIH
Briefly: CDK4 percentage degradation in Calu-1 cells (immunoblotting). In kind it is cell-based. To be noted: Calu-1 cells, 200 nM, 16 hours; read-out: CDK4 Degradation (200 nM). The method, boiled down:
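Cultured cells were rinsed once in cold PBS and lysed in cold RIPA buffer containing protease and phosphatase inhibitors, with gentle agitation at 4° C. for 30 min. Lysates were centrifuged at 13,000 rpm for 10 min at 4° C., and protein was quantified by BCA. Samples were then separated by SDS-PAGE, detected with ECL, and the CDK4 bands quantified in Image Lab.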

Regarding `CC(=O)c1c(C)c2cnc(Nc3ccc(N4CCN(CC(=O)NCCCCCCCNc5ccccc5C(=O)Nc5nc(C)c(C)s5)CC4)cn3)nc2n(C2CCCC2)c1=O` [CPD-364, 2-((7-(2-(4-(6-((6-Acetyl-8-cyclopentyl-5-methyl-7-oxo-7,8-dihydropyrido[2,3-d]pyrimidin-2-yl)amino)pyridin-3-yl)piperazin-1-yl)acetamido)heptyl)amino)-N-(4,5-dimethylthiazol-2-yl)benzamide], the “CyclinD1 Degradation (200 nM)” value in test [1] was “A (protein percentage degradation >=80%)”. Besides, in test [2], the inhibition at 0.2 µM is 50 to 80%.

Regarding `COc1ccc(NC(=O)c2ccc(N(C)C)cc2NC(=O)CCOCCOCCNC(=O)CN2CCN(c3ccc(Nc4ncc5c(C)c(C(C)=O)c(=O)n(C6CCCC6)c5n4)nc3)CC2)nn1` [CPD-365, 2-(3-(2-(2-(2-(4-(6-((6-Acetyl-8-cyclopentyl-5-methyl-7-oxo-7,8-dihydropyrido[2,3-d]pyrimidin-2-yl)amino)pyridin-3-yl)piperazin-1-yl)acetamido)ethoxy)ethoxy)propanamido)-4-(dimethylamino)-N-(6-methoxypyridazin-3-yl)benzamide], in test [1], the “CyclinD1 Degradation (200 nM)” value is “A (protein percentage degradation >=80%)”. Besides, in test [2], the inhibition at 0.2 µM was over 80%.

In the case of `COc1ccc(NC(=O)c2ccccc2NC(=O)COCCO[C@H]2CC[C@H](NC(=O)CN3CCN(c4ccc(Nc5ncc6c(C)c(C(C)=O)c(=O)n(C7CCCC7)c6n5)nc4)CC3)CC2)nn1` [CPD-366, 2-(2-(2-((trans-4-(2-(4-(6-((6-Acetyl-8-cyclopentyl-5-methyl-7-oxo-7,8-dihydropyrido[2,3-d]pyrimidin-2-yl)amino)pyridin-3-yl)piperazin-1-yl)acetamido)cyclohexyl)oxy)ethoxy)acetamido)-N-(6-methoxypyridazin-3-yl)benzamide], the “CyclinD1 Degradation (200 nM)” value in test [1] is “D (protein percentage degradation <30%)”. Besides, the inhibition at 0.2 µM in test [2] is under 30%.

As for `CC(=O)c1c(C)c2cnc(Nc3ccc(N4CCN(CC(=O)NCCOCCOCCC(=O)Nc5ccccc5C(=O)Nc5nnc(C)s5)CC4)cn3)nc2n(C2CCCC2)c1=O` [CPD-367, 2-(3-(2-(2-(2-(4-(6-((6-Acetyl-8-cyclopentyl-5-methyl-7-oxo-7,8-dihydropyrido[2,3-d]pyrimidin-2-yl)amino)pyridin-3-yl)piperazin-1-yl)acetamido)ethoxy)ethoxy)propanamido)-N-(5-methyl-1,3,4-thiadiazol-2-yl)benzamide], the “CyclinD1 Degradation (200 nM)” value in test [1] was “D (protein percentage degradation <30%)”. Moreover, in test [2], the inhibition at 0.2 µM is under 30%.

As for `CC(=O)c1c(C)c2cnc(Nc3ccc(N4CCN(CC(=O)NCCCCCCCNc5cc(C)ccc5C(=O)Nc5nc(C)c(C)s5)CC4)cn3)nc2n(C2CCCC2)c1=O` [CPD-368, 2-((7-(2-(4-(6-((6-Acetyl-8-cyclopentyl-5-methyl-7-oxo-7,8-dihydropyrido[2,3-d]pyrimidin-2-yl)amino)pyridin-3-yl)piperazin-1-yl)acetamido)heptyl)amino)-N-(4,5-dimethylthiazol-2-yl)-4-methylbenzamide], the “CyclinD1 Degradation (200 nM)” value in test [1] is “A (protein percentage degradation >=80%)”. The inhibition at 0.2 µM in test [2] is over 80%.

`CC(=O)c1c(C)c2cnc(Nc3ccc(N4CCN(CC(=O)NCCOCCOCCC(=O)Nc5ccccc5C(=O)Nc5ccc(C#N)nn5)CC4)cn3)nc2n(C2CCCC2)c1=O` [CPD-369, 2-(3-(2-(2-(2-(4-(6-((6-Acetyl-8-cyclopentyl-5-methyl-7-oxo-7,8-dihydropyrido[2,3-d]pyrimidin-2-yl)amino)pyridin-3-yl)piperazin-1-yl)acetamido)ethoxy)ethoxy)propanamido)-N-(6-cyanopyridazin-3-yl)benzamide]: the “CyclinD1 Degradation (200 nM)” value in test [1] is given as “D (protein percentage degradation <30%)”. Also, the inhibition at 0.2 µM in test [2] is under 30%.

Turning to `CNc1ccc(C(=O)Nc2nc(C)c(C)s2)c(NCCCCCCCNC(=O)CN2CCN(c3ccc(Nc4ncc5c(C)c(C(C)=O)c(=O)n(C6CCCC6)c5n4)nc3)CC2)c1` [CPD-370, 2-((7-(2-(4-(6-((6-Acetyl-8-cyclopentyl-5-methyl-7-oxo-7,8-dihydropyrido[2,3-d]pyrimidin-2-yl)amino)pyridin-3-yl)piperazin-1-yl)acetamido)heptyl)amino)-N-(4,5-dimethylthiazol-2-yl)-4-(methylamino)benzamide], in test [1], the “CyclinD1 Degradation (200 nM)” value is given as “A (protein percentage degradation >=80%)”. Further, in test [2], the inhibition at 0.2 µM is over 80%.

For `CNc1ccc(C(=O)Nc2ccc(C)c(C3CC3)n2)c(NCCCCCNC(=O)CN2CCN(c3ccc(Nc4ncc5c(C)c(C(C)=O)c(=O)n(C6CCCC6)c5n4)nc3)CC2)c1` [CPD-371, 2-((5-(2-(4-(6-((6-Acetyl-8-cyclopentyl-5-methyl-7-oxo-7,8-dihydropyrido[2,3-d]pyrimidin-2-yl)amino)pyridin-3-yl)piperazin-1-yl)acetamido)pentyl)amino)-N-(6-cyclopropyl-5-methylpyridin-2-yl)-4-(methylamino)benzamide], in test [1], the “CyclinD1 Degradation (200 nM)” value is listed as “A (protein percentage degradation >=80%)”. Moreover, in test [2], the inhibition at 0.2 µM was in the range of 50 to 80%.

In the case of `CC(=O)c1c(C)c2cnc(Nc3ccc(N4CCN(CC(=O)NCCCCCNc5cc(F)ccc5C(=O)Nc5ccc(N(C)C)nn5)CC4)cn3)nc2n(C2CCCC2)c1=O` [CPD-372, 2-((5-(2-(4-(6-((6-Acetyl-8-cyclopentyl-5-methyl-7-oxo-7,8-dihydropyrido[2,3-d]pyrimidin-2-yl)amino)pyridin-3-yl)piperazin-1-yl)acetamido)pentyl)amino)-N-(6-(dimethylamino)pyridazin-3-yl)-4-fluorobenzamide], the “CyclinD1 Degradation (200 nM)” value in test [1] is “A (protein percentage degradation >=80%)”. Also, the inhibition at 0.2 µM in test [2] was in the range of 50 to 80%.

Turning to `CC(=O)c1c(C)c2cnc(Nc3ccc(N4CCN(CC(=O)NCCCCCNc5cc(C)ccc5C(=O)Nc5ccc(N(C)C)nn5)CC4)cn3)nc2n(C2CCCC2)c1=O` [CPD-373, 2-((5-(2-(4-(6-((6-Acetyl-8-cyclopentyl-5-methyl-7-oxo-7,8-dihydropyrido[2,3-d]pyrimidin-2-yl)amino)pyridin-3-yl)piperazin-1-yl)acetamido)pentyl)amino)-N-(6-(dimethylamino)pyridazin-3-yl)-4-methylbenzamide], the “CyclinD1 Degradation (200 nM)” value in test [1] is on record as “A (protein percentage degradation >=80%)”. Further, in test [2], the inhibition at 0.2 µM is 50 to 80%.

As for `CC(=O)c1c(C)c2cnc(Nc3ccc(N4CCN(CC(=O)NCCCCCNc5cc(Cl)ccc5C(=O)Nc5ccc(N(C)C)nn5)CC4)cn3)nc2n(C2CCCC2)c1=O` [CPD-374, 2-((5-(2-(4-(6-((6-Acetyl-8-cyclopentyl-5-methyl-7-oxo-7,8-dihydropyrido[2,3-d]pyrimidin-2-yl)amino)pyridin-3-yl)piperazin-1-yl)acetamido)pentyl)amino)-4-chloro-N-(6-(dimethylamino)pyridazin-3-yl)benzamide], the “CyclinD1 Degradation (200 nM)” value in test [1] was “A (protein percentage degradation >=80%)”. Also, the inhibition at 0.2 µM in test [2] lay in the range of 50 to 80%.

Regarding `CC(=O)c1c(C)c2cnc(Nc3ccc(N4CCN(CC(=O)NCCCCNc5cc(C)ccc5C(=O)Nc5ccc(N(C)C)nn5)CC4)cn3)nc2n(C2CCCC2)c1=O` [CPD-375, 2-((4-(2-(4-(6-((6-Acetyl-8-cyclopentyl-5-methyl-7-oxo-7,8-dihydropyrido[2,3-d]pyrimidin-2-yl)amino)pyridin-3-yl)piperazin-1-yl)acetamido)butyl)amino)-N-(6-(dimethylamino)pyridazin-3-yl)-4-methylbenzamide], the “CyclinD1 Degradation (200 nM)” value in test [1] is given as “A (protein percentage degradation >=80%)”. Moreover, in test [2], the inhibition at 0.2 µM was 50 to 80%.

As for `CC(=O)c1c(C)c2cnc(Nc3ccc(N4CCN(CC(=O)NCCCCCNc5cc(C#N)ccc5C(=O)Nc5ccc(N(C)C)nn5)CC4)cn3)nc2n(C2CCCC2)c1=O` [CPD-376, 2-((5-(2-(4-(6-((6-Acetyl-8-cyclopentyl-5-methyl-7-oxo-7,8-dihydropyrido[2,3-d]pyrimidin-2-yl)amino)pyridin-3-yl)piperazin-1-yl)acetamido)pentyl)amino)-4-cyano-N-(6-(dimethylamino)pyridazin-3-yl)benzamide], in test [1], the “CyclinD1 Degradation (200 nM)” value is given as “A (protein percentage degradation >=80%)”. Moreover, the inhibition at 0.2 µM in test [2] was 50 to 80%.

Consider `CNc1ccc(C(=O)Nc2ccc(N(C)C)nn2)c(NCCCCCNC(=O)CN2CCN(c3ccc(Nc4ncc5c(C)c(C(C)=O)c(=O)n(C6CCCC6)c5n4)nc3)CC2)c1` [CPD-377, 2-((5-(2-(4-(6-((6-Acetyl-8-cyclopentyl-5-methyl-7-oxo-7,8-dihydropyrido[2,3-d]pyrimidin-2-yl)amino)pyridin-3-yl)piperazin-1-yl)acetamido)pentyl)amino)-N-(6-(dimethylamino)pyridazin-3-yl)-4-(methylamino)benzamide], for which the “CyclinD1 Degradation (200 nM)” value in test [1] is reported as “A (protein percentage degradation >=80%)”. The inhibition at 0.2 µM in test [2] was 50 to 80%.

Turning to `CC(=O)c1c(C)c2cnc(Nc3ccc(N4CCN(CC(=O)NCCCCCNc5cc(Cl)ccc5C(=O)Nc5ccc(C)c(C6CC6)n5)CC4)cn3)nc2n(C2CCCC2)c1=O` [CPD-378, 2-((5-(2-(4-(6-((6-acetyl-8-cyclopentyl-5-methyl-7-oxo-7,8-dihydropyrido[2,3-d]pyrimidin-2-yl)amino)pyridin-3-yl)piperazin-1-yl)acetamido)pentyl)amino)-4-chloro-N-(6-cyclopropyl-5-methylpyridin-2-yl)benzamide], the “CyclinD1 Degradation (200 nM)” value in test [1] is “B (protein percentage degradation <80%, and >=50%)”. The inhibition at 0.2 µM in test [2] is under 30%.

The record behind these values is patent US20250235543A1, “MODIFIED PROTEINS AND PROTEIN DEGRADERS” (Cullgen (Shanghai), Inc., priority 2021, published 2025).
